# Literature values as cited in patent publication US20230392195A1, “SYNTHETIC LETHALITY-MEDIATED PRECISION ONCOLOGY VIA TUMOR TRANSCRIPTOME” (The United States of America, as Represented by the …, priority 2020, published 2023).
# Test system: advanced solid tumors
# Details: individual patient case: everolimus in an neuroendocrine cancer patient, cabozantinib in a colon cancer patient
smiles,measurement,value
CO[C@H]1C[C@@H]2CC[C@@H](C)[C@@](O)(O2)C(=O)C(=O)N2CCCC[C@H]2C(=O)O[C@H]([C@H](C)C[C@@H]2CC[C@@H](OCCO)[C@H](OC)C2)CC(=O)[C@H](C)/C=C(\C)[C@@H](O)[C@@H](OC)C(=O)[C@H](C)C[C@H](C)/C=C/C=C/C=C/1C [everolimus],response to the therapy in the trial,responded
